Reference: patent publication US20010000783A1, “Treatment of interstitial cystitis” (priority 1998, published 2001)

System: Normal human bladder epithelial cells
Assay: Inhibition of APF activity by recombinant growth factors, low molecular weight urine fractions, 3H-thymidine incorporation
Format: cell-based
Details: simultaneous exposure to recombinant growth factor and <3 kDa urine fraction, 48 hours; HB-EGF 0-100 ng/ml (effect evident at 10 ng/ml), EGF 0-100 ng/ml, IGF-1 0-300 pg/ml; FIGS. 6A-6C
Procedure: Primary normal adult human bladder epithelial (HBE) cells were cultured by the method described above in Part II. On the third day of incubation, cell medium was replaced by serum free MEM containing the less than 3 kDa fraction (i.e, containing the APF) of urine specimens from IC patients or controls (i.e., that part containing the anti-proliferative factor or APF described in related application Ser. No. 08/944,202), or HPLC-purified APF or its mock control along with varying concentrations of recombinant HB-EGF (0-100 ng/ml), EGF (0-100 ng/ml), or IGF-1 (0-300 pg/ml) [all from R & D Systems, Minneapolis, Minn.] diluted in phosphate buffered saline (1:1:1). Urine was prepared by the method described above in Part II and HPLC purified APF was prepared as described above. Following an additional 48 hours of incubation at 37 degrees C. in a 5% CO2 atmosphere, cell proliferation was assessed by ^3H-thymidine incorporation according to the published methods^38.
Normal human bladder epithelial cells were exposed simultaneously to recombinant human growth factors (HB-EGF, EGF, or IGF1) and low molecular weight fractions from IC patients or control urine specimens. Cell proliferation was determined 48 hours later by 3H-thymidine incorporation (FIGS. 6A-6C). Bar values indicate the mean of 5-8 determinations. Vertical lines indicate the standard error of the mean.

| Substance | inhibition of APF antiproliferative activity |
| --- | --- |
| IGF1: recombinant insulin-like growth factor 1 from R & D Systems | unable to completely inhibit APF activity |
| epidermal growth factor (NSDSECPLSHDGYCLHDGVCMYIEALDKYACNCVVGYIGERCQYRDLKWWELR; UniProt P01133 971-1023, looked up) [EGF, recombinant epidermal growth factor from R & D Systems] | unable to completely inhibit APF activity |
